# Measurements published in patent publication US12344610B2, “APOL1 inhibitors and methods of use” (Maze Therapeutics, Inc., priority 2022, dated 2025).
# pEC50: −log10 of the molar value.
# Key:
# Assay type in all cases: cell-based
# [1] = tested on: HEK293 cells overexpressing APOL1 G2; assay: APOL1 G2 HEK293 cell rescue assay (reversal of cell death caused by overexpression of APOL1); details: Homo sapiens, HEK293, HEK293 overexpressing APOL1 G2; geometric mean of at least 2 assay runs; † = single assay run
# In short: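 EC50 is the half-maximal effective concentration for reversing cell death driven by APOL1 G2 overexpression in HEK293 cells. Reported as geometric mean of at least 2 runs on separate days, each run averaging duplicate wells per plate; some values from a single run.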
# [2] = tested on: Trypanosoma brucei Lister 427 VSG221 with APOL1 G1 recombinant protein; assay: APOL1 G1 trypanosome cell rescue assay (Example B5); details: Trypanosoma brucei, 20 h, read-out: APOL1 G1 Trypanosome Rescue EC50, Trypanosoma brucei Lister 427 VSG221 with APOL1 G1 recombinant protein, 20 hours, CellTiter-Glo; geometric mean of at least 2 assay runs; † = single assay run
# In short: (§1)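 Mature APOL1 (residues 28-398, E. coli-expressed, His-tag removed by TEV) was added as a 2 μg/mL solution to T. brucei Lister 427 VSG221 in modified HMI-9 medium at 250 cells/well, with duplicate 11-point 2-fold compound dilutions (0.4% DMSO). After 20 h at 37° C, 5% CO2, viability was read by CellTiter-Glo luminescence.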
# [3] = tested on: Trypanosoma brucei Lister 427 VSG221 with APOL1 G2 recombinant protein; assay: APOL1 G2 trypanosome cell rescue assay (Example B5); details: Trypanosoma brucei, 20 h, read-out: APOL1 G2 Trypanosome Rescue EC50, Trypanosoma brucei Lister 427 VSG221 with APOL1 G2 recombinant protein, 20 hours, CellTiter-Glo; geometric mean of at least 2 assay runs; † = single assay run
# In short: as §1
smiles,measurement,setting,value
"CC(c1ccc(OCCN2CCC3(CC2)C(=O)Nc2ccc(Cl)cc23)cc1)S(C)(=O)=O (single isomer, unassigned) [Compound 39, 5-chloro-1′-(2-{4-[(1S) or (1R)-1-methanesulfonylethyl]phenoxy}ethyl)-1,2-dihydrospiro[indole-3,4′-piperidin]-2-one]",pEC50,[1],7.25
same,pEC50,[2],6.69
same,pEC50,[3],7.28
"O=C1CCc2cc(OCCN3CCC4(CC3)C(=O)Nc3ccc(Cl)cc34)cnc2N1[C@H]1C[C@@H](CO)C1 (single isomer, unassigned) [Compound 319, 5-chloro-1′-[2-({7-oxo-8-[(cis)-3-(hydroxymethyl)cyclobutyl]-5,6,7,8-tetrahydro-1,8-naphthyridin-3-yl}oxy)ethyl]-1,2-dihydrospiro[indole-3,4′-piperidin]-2-one]",pEC50,[1],7.38
same,pEC50,[2],7.09
same,pEC50,[3],7.57
"CC[C@]1(O)C[C@@H](N2C(=O)CCc3cc(OCCN4CCC5(CC4)C(=O)Nc4ccc(Cl)cc45)cnc32)C1 (single isomer, unassigned) [Compound 321, 5-chloro-1′-[2-({7-oxo-8-[(cis)-3-ethyl-3-hydroxycyclobutyl]-5,6,7,8-tetrahydro-1,8-naphthyridin-3-yl}oxy)ethyl]-1,2-dihydrospiro[indole-3,4′-piperidin]-2-one]",pEC50,[1],7.62
same,pEC50,[2],7.34
same,pEC50,[3],7.84
"CC(C)(CO)c1ncc(OCCN2CCC3(CC2)C(=O)Nc2ccc(Cl)cc23)cn1 [Compound 334, 5-chloro-1′-(2-{[2-(1-hydroxy-2-methylpropan-2-yl)pyrimidin-5-yl]oxy}ethyl)-1,2-dihydrospiro[indole-3,4′-piperidin]-2-one]",pEC50,[1],6.96
"C[C@]1(O)C[C@@H](n2ccc3cc(OCCN4CCC5(CC4)C(=O)Nc4ccc(C(F)F)cc45)cnc32)C1 [Compound 350, 5-(difluoromethyl)-1′-[2-({1-[(cis)-3-hydroxy-3-methylcyclobutyl]-1H-pyrrolo[2,3-b]pyridin-5-yl}oxy)ethyl]-1,2-dihydrospiro[indole-3,4′-piperidin]-2-one]",pEC50,[1],7.73
"C[C@]1(O)C[C@@H](n2c(=O)oc3cc(OCCN4CCC5(CC4)C(=O)Nc4ccc(Cl)cc45)cnc32)C1 [Compound 394, 5-chloro-1′-[2-({2-oxo-3-[(cis)-3-hydroxy-3-methylcyclobutyl]-2H,3H-[1,3]oxazolo[4,5-b]pyridin-6-yl}oxy)ethyl]-1,2-dihydrospiro[indole-3,4′-piperidin]-2-one]",pEC50,[1],7.62
"O=C1Nc2ccc(Cl)cc2C12CCN(CCOc1cnc(N3CC4(CC(O)C4)C3)nc1)CC2 [Compound 396, 5-chloro-1′-{2-[(2-{6-hydroxy-2-azaspiro[3.3]heptan-2-yl}pyrimidin-5-yl)oxy]ethyl}-1,2-dihydrospiro[indole-3,4′-piperidin]-2-one]",pEC50,[1],7.39
"CC(CO)(c1ncc(OCCN2CCC3(CC2)C(=O)Nc2ccc(Cl)cc23)cc1C(F)(F)F)S(C)(=O)=O (stereo not drawn) [Compound 401, 5-chloro-1′-(2-{[6-(1-hydroxy-2-methanesulfonylpropan-2-yl)-5-(trifluoromethyl)pyridin-3-yl]oxy}ethyl)-1,2-dihydrospiro[indole-3,4′-piperidin]-2-one]",pEC50,[1],7.44
"CC(C)(O)c1ncc(OCCN2CCC3(CC2)C(=O)Nc2ccc(C#N)cc23)cc1C(F)(F)F [Compound 411, 1′-(2-{[6-(2-hydroxypropan-2-yl)-5-(trifluoromethyl)pyridin-3-yl]oxy}ethyl)-2-oxo-1,2-dihydrospiro[indole-3,4′-piperidine]-5-carbonitrile]",pEC50,[1],7.65
"C[C@]1(O)C[C@@H](n2cnc3cc(OCCN4CCC5(CC4)C(=O)Nc4ccc(C#N)cc45)cc(C(F)(F)F)c32)C1 [Compound 433, 1′-(2-((1-((cis)-3-hydroxy-3-methylcyclobutyl)-7-(trifluoromethyl)-1H-benzo[d]imidazol-5-yl)oxy)ethyl)-2-oxospiro[indoline-3,4′-piperidine]-5-carbonitrile]",pEC50,[1],7.83
"C[C@]1(O)C[C@@H](n2nnc3cc(OCCN4CCC5(CC4)C(=O)Nc4ccc(Cl)cc45)cc(C(F)(F)F)c32)C1 [Compound 434, 5-chloro-1′-[2-({1-[(cis)-3-hydroxy-3-methylcyclobutyl]-7-(trifluoromethyl)-1H-1,2,3-benzotriazol-5-yl}oxy)ethyl]-1,2-dihydrospiro[indole-3,4′-piperidin]-2-one]",pEC50,[1],7.95
"Cc1nc2cc(OCCN3CCC4(CC3)C(=O)Nc3ccc(Cl)cc34)cc(C(F)(F)F)c2n1[C@H]1C[C@@](C)(O)C1 [Compound 442, 5-chloro-1′-[2-({2-methyl-1-[(cis)-3-hydroxy-3-methylcyclobutyl]-7-(trifluoromethyl)-1H-1,3-benzodiazol-5-yl}oxy)ethyl]-1,2-dihydrospiro[indole-3,4′-piperidin]-2-one]",pEC50,[1],> 8.51
"Cc1nc2cc(OCCN3CCC4(CC3)C(=O)Nc3ccc(C#N)cc34)cc(C(F)(F)F)c2n1[C@H]1C[C@@](C)(O)C1 [Compound 443, 1′-[2-({2-methyl-1-[(cis)-3-hydroxy-3-methylcyclobutyl]-7-(trifluoromethyl)-1H-1,3-benzodiazol-5-yl}oxy)ethyl]-2-oxo-1,2-dihydrospiro[indole-3,4′-piperidine]-5-carbonitrile]",pEC50,[1],7.99
"C[C@]1(O)C[C@@H](n2cnc3cc(OCCN4CCC5(CC4)C(=O)Nc4ccc(C(F)F)cc45)cc(C(F)(F)F)c32)C1 [Compound 450, 5-(difluoromethyl)-1′-[2-({1-[(cis)-3-hydroxy-3-methylcyclobutyl]-7-(trifluoromethyl)-1H-1,3-benzodiazol-5-yl}oxy)ethyl]-1,2-dihydrospiro[indole-3,4′-piperidin]-2-one]",pEC50,[1],8.26
"C[C@]1(O)C[C@@H](n2cnc3cc(OCCN4CCC5(CC4)C(=O)Nc4c(I)cc(Cl)cc45)cc(C(F)(F)F)c32)C1 [Compound 453, 5-chloro-7-iodo-1′-[2-({1-[(cis)-3-hydroxy-3-methylcyclobutyl]-7-(trifluoromethyl)-1H-1,3-benzodiazol-5-yl}oxy)ethyl]-1,2-dihydrospiro[indole-3,4′-piperidin]-2-one]",pEC50,[1],7.72
"C[C@]1(O)C[C@@H](n2cnc3cc(OCCN4CCC5(CC4)C(=O)Nc4ccc(Cl)cc45)cc(F)c32)C1 [Compound 454, 5-chloro-1′-(2-((7-fluoro-1-((cis)-3-hydroxy-3-methylcyclobutyl)-1H-benzo[d]imidazol-5-yl)oxy)ethyl)spiro[indoline-3,4′-piperidin]-2-one]",pEC50,[1],7.62
"C[C@]1(O)C[C@@H](n2ncc3cc(OCCN4CCC5(CC4)C(=O)Nc4ccc(Cl)cc45)cc(C(F)(F)F)c32)C1 [Compound 464, 5-chloro-1′-[2-({1-[(cis)-3-hydroxy-3-methylcyclobutyl]-7-(trifluoromethyl)-1H-indazol-5-yl}oxy)ethyl]-1,2-dihydrospiro[indole-3,4′-piperidin]-2-one]",pEC50,[1],8.30
"C[C@]1(O)C[C@@H](n2ncc3cc(OCCN4CCC5(CC4)C(=O)Nc4ccc(C#N)cc45)cc(C(F)(F)F)c32)C1 [Compound 465, 2-oxo-1′-[2-({1-[(cis)-3-hydroxy-3-methylcyclobutyl]-7-(trifluoromethyl)-1H-indazol-5-yl}oxy)ethyl]-1,2-dihydrospiro[indole-3,4′-piperidine]-5-carbonitrile]",pEC50,[1],8.05
